Values quoted from earlier work, collected in patent US20030180354A1 (DR. REDDY'S LABORATORIES LIMITED, priority 2001, published 2003).

Conditions: in man

In the case of `CCOC(=O)C1=C(COCCN)NC(C)=C(C(=O)OC)C1c1ccccc1Cl` (racemic) [Amlodipine, (±)-2-[(2-Aminoethoxy)methyl]-4-(2-chlorophenyl)-3-ethoxycarbonyl-5-methoxycarbonyl-6-methyl-1,4-dihydropyridine], the Oral bioavailability is given as 64%.
